Active and inactive are the calls of the source. The rule behind the calls is not given here.

Here are results for 6 compounds from ChEMBL document CHEMBL1268864, “Dolabranes from the Chinese Mangrove, Ceriops tagal” (2010).

The subject of assay [1] is Brontispa longissima. The experiment in a line: Antifeedant activity against third-instar larvae of Brontispa longissima at 1 mg/ml after 48 hrs by leaf disk method. Type of assay: functional.
For another assay, the system named is MDA-MB-435. The experiment in a line: Cytotoxicity against human MDA-MB-435 cells by MTT assay. Type of assay: functional, cell-based. On the technique in general: Tetrazolium dyes change colour on reduction, which living cells bring about.
For assay [2], the system named is Brontispa longissima. The experiment in a line: Antifeedant activity against third-instar larvae of Brontispa longissima at 0.5 mg/ml after 24 hrs by leaf disk method. The class given is functional.
The subject of a further assay is A2058. The assay is described as follows: Cytotoxicity against human A2058 cells by MTT assay. Type of assay: functional, cell-based.
Another assay deals with G-361. The assay is described as follows: Cytotoxicity against human G361 cells by MTT assay. The class given is functional, cell-based.
The subject of assay [3] is Brontispa longissima. The assay is described as follows: Antifeedant activity against third-instar larvae of Brontispa longissima at 0.1 mg/ml after 48 hrs by leaf disk method. Type of assay: functional.
Assay [4] deals with Brontispa longissima. The experiment in a line: Antifeedant activity against third-instar larvae of Brontispa longissima at 0.1 mg/ml after 24 hrs by leaf disk method. Type of assay: functional.
The next assay relates to DU-145. The experiment in a line: Cytotoxicity against human DU145 cells by MTT assay. Type of assay: functional, cell-based.
Assay [5] relates to Brontispa longissima. The assay is described as follows: Antifeedant activity against third-instar larvae of Brontispa longissima at 0.5 mg/ml after 48 hrs by leaf disk method. The class given is functional.
Assay [6] has as its system Brontispa longissima. The assay is described as follows: Antifeedant activity against third-instar larvae of Brontispa longissima at 1 mg/ml after 24 hrs by leaf disk method. Type of assay: functional.
Another assay relates to MDA-MB-468. The assay is described as follows: Cytotoxicity against human MDA-MB-468 cells by MTT assay. Type of assay: functional, cell-based.

As for `CC1=C(O)C(=O)C[C@@H]2[C@@]3(C)CC[C@](C)(O)C[C@@H]3CC[C@]12C` [TAGALSIN P], the Activity in the assay with Brontispa longissima [1] turned out to be 22%; with Brontispa longissima [2], 18%; with Brontispa longissima [3] it was 2%; with Brontispa longissima [4], 14%; in the assay on Brontispa longissima [5], 6%; in the assay with Brontispa longissima [6], 48%. The outcome with MDA-MB-435, in the assay on A2058, with G-361, in the assay on DU-145 and with MDA-MB-468 was inactive.
Take `C=C1C(=O)C=C[C@@H]2[C@@]3(C)CC[C@](C)(O)C[C@@H]3CC[C@]12C` [TAGALSIN Q]: the Activity with Brontispa longissima [1] turned out to be 43%; with Brontispa longissima [2], 50%; in the assay with Brontispa longissima [3], 30%; with Brontispa longissima [4], 23%; in the assay with Brontispa longissima [5], 36%; in the assay on Brontispa longissima [6], 53%. Further, the result in the assay on MDA-MB-435, in the assay with A2058, with G-361, in the assay with DU-145 and in the assay with MDA-MB-468 was inactive.
Take `C[C@]1(C(=O)O)CC[C@@]2(C)[C@@H](CC[C@]3(C)/C(=C/O)C(=O)CC[C@H]23)C1` [TAGALSIN R]: the Activity in the assay on Brontispa longissima [1] amounted to 28%; with Brontispa longissima [2], 37%; in the assay on Brontispa longissima [3], 7%; in the assay on Brontispa longissima [4] it was 18%; with Brontispa longissima [5], 30%; in the assay with Brontispa longissima [6] it was 40%. Moreover, the outcome in the assay with MDA-MB-435, in the assay with A2058, with G-361, in the assay with DU-145 and with MDA-MB-468 was inactive.
Take `C[C@]1(C(=O)CO)CC[C@@]2(C)[C@@H](CC[C@]3(C)/C(=C/O)C(=O)CC[C@H]23)C1` [TAGALSIN S]: the Activity is on record as 47% in the assay with Brontispa longissima [1]; 45% in the assay on Brontispa longissima [2]; 36% in the assay with Brontispa longissima [3]; 25% with Brontispa longissima [4]; 37% in the assay on Brontispa longissima [5]; 51% in the assay with Brontispa longissima [6]. Moreover, the result in the assay with MDA-MB-435, in the assay with A2058, with G-361, with DU-145 and in the assay with MDA-MB-468 was inactive.
With `C[C@]1(C(O)CO)CC[C@@]2(C)[C@@H](CC[C@]3(C)/C(=C/O)C(=O)CC[C@H]23)C1` (stereo partly specified) [TAGALSIN T], the Activity was -20% with Brontispa longissima [1]; -11% with Brontispa longissima [2]; -48% in the assay on Brontispa longissima [3]; -32% in the assay with Brontispa longissima [4]; -31% in the assay on Brontispa longissima [5]; -5% in the assay on Brontispa longissima [6]. The result in the assay on MDA-MB-435, in the assay on A2058, in the assay with G-361, in the assay on DU-145 and in the assay on MDA-MB-468 was inactive.
Regarding `C=C1C(=O)CC[C@@H]2[C@@]3(C)CC[C@](C)(C(O)CO)C[C@@H]3CC[C@]12C` (stereo partly specified) [TAGALSIN U], the Activity in the assay with Brontispa longissima [1] came out at 41%; in the assay on Brontispa longissima [2], 41%; in the assay with Brontispa longissima [3], 10%; in the assay with Brontispa longissima [4], 14%; with Brontispa longissima [5] it was 31%; with Brontispa longissima [6], 52%. For the same compound, the outcome with MDA-MB-435, in the assay on A2058, in the assay with G-361, in the assay on DU-145 and with MDA-MB-468 was inactive.
